Laboratory results reported in article PMC12647017, “Discovery and optimization of a synthetic small protein domain targeting antibodies” (Frontiers in Bioengineering and Biotechnology, 2025).

Test system: human polyclonal IgG
Assay: Screening ELISA of phage display clones (crude extracts) against human polyclonal IgG
Assay type: binding
Details: crude extract of clones from 6th panning round, 1 µg/well human polyclonal IgG, blocked 3% (w/v) BSA in TBS, 50 µL extract 1 h at 37 °C, Anti-HA tag-HRP, ABTS, Abs405nm
Protocol: The biopanning of the previously developed WWp5_4 library ([Dias et al., 2025]) (Figures 1A,B) against human polyclonal IgG was performed for six rounds, after which an enrichment of ligands was observed (Supplementary Table S3). To assess the binding of each clone to the target, 192 clones were selected and expressed at small scale in 96-deep well blocks, following conditions previously optimised. After cell lysis, the supernatant containing the soluble fraction was used for ELISA assays. The results in Figure 1C illustrate the difference in the absorbance profile of the screened ligands. […] From these 26, only 21 presented high quality for reliable sequencing results. The sequence alignment and diversity of the different binders is represented in Table 1 and Figure 2A.
Small Scale Protein Expression and screening ELISA: From the output of the 6th round of panning, 94 isolated colonies were peaked into two sterile 96-well deep well 2mL round-bottom plates and grown with 200 µL of LB with ampicillin, 125 rpm, 37 °C, overnight (master plates). The following day, to one of the master plates was added glycerol to achieve a final concentration of 15% and was stored at -80 °C. Regarding the other master plate, 12 µL of this culture was added to another sterile 96-well deep well 2 mL round-bottom plate with 1.2 mL of LB with ampicillin and was grown at 37 °C, 125 rpm until OD600nm achieved 0.5-0.6. After this, protein expression was induced with 1 mM IPTG and continued incubation with the previous conditions. The following day, the cultures were sonicated for 30 minutes in ice-water bath and centrifuged for 10 minutes at 2500 x g. The supernatant was collected and transferred to a new microplate to be used in the screening for the ELISA (crude extract). For the ELISA, three microplates were tested: A) Sample binding plate; B) Negative control plate; C) Expression plate. On the sample binding plate, 1 µg/well of human polyclonal IgG was immobilized on the plate at 4 °C, overnight. On the following day, the target was removed, and the wells were washed once with TBS, then the plate was blocked with 300 µL 3% (w/v) BSA in TBS for 1 hour at 37 °C. After this, the wells were washed once with TBS, and were then incubated with 50 µL of crude extract (containing WW domain) for 1 hour at 37 °C. The plate was then washed 5 times with TBS-T, and then incubated with 100 µL of the Anti-HA tag-HRP conjugated antibody (diluted 1:1000) for 1 hour at 37 °C. The plate was then washed once with TBS-T and 4 times with TBS, and then incubated with the substrate ABTS for 1 hour at the dark at 37 °C. The results were then analysed in a microplate reader (TECAN) and the Abs405nm was then measured.
For the Negative control plate the protocol was the same as for the Binding microplate, except for the target immobilization. Instead of having IgG, only coating buffer was added. This plate allows to detect clones that unspecific bind to BSA present in the Blocking Buffer. For the Expression plate the protocol started at the step of incubation with the crude extract, and from there the steps were the same as the Binding microplate. This plate allows to detect clone’s basal expression level.

## SMGLPPGWDEYKT RRFKL GKTYYYNH HILS KTSTWTDPRMSS [Clone E6]
  ELISA signal: High (high binders (Abs>0.4))
